Measured values taken from PubChem BioAssay (NCI).
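In this assay, cells in 96-well plates receive the compound at five concentrations for 48 hours. Endpoints are linearly interpolated between the surrounding concentrations. At the GI50, growth is halved. At the TGI there is no net growth.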

How the values were obtained:
Assay in all cases: inhibition of tumour cell growth, NCI panel, 48 h
[1] = system: DU-145 prostate
[2] = system: OVCAR-3 ovarian
[3] = system: UACC-257 melanoma
[4] = system: U251 CNS
[5] = system: NCI-H460 lung
[6] = system: HOP-92 NSCLC
[7] = system: CCRF-CEM leukemia
[8] = system: KM12 colon
[9] = system: MDA-MB-435
[10] = system: SN12C renal
[11] = system: M14 melanoma
[12] = system: RPMI-8226 leukemia
[13] = system: SF-268 CNS
[14] = system: OVCAR-8 ovarian
[15] = system: HT29 colon
[16] = system: A549 NSCLC
[17] = system: TK-10 renal
[18] = system: MDA-MB-468 breast
[19] = system: HL-60(TB) leukemia
[20] = system: HCT-15 colon
[21] = system: NCI-H226 lung
[22] = system: OVCAR-4 ovarian
[23] = system: ACHN renal
[24] = system: NCI-H23 lung
[25] = system: MCF7 breast
[26] = system: OVCAR-5 ovarian
[27] = system: 786-0 renal
[28] = system: IGROV1 ovarian
[29] = system: SR leukemia
[30] = system: HCC-2998 colon

Cc1noc2c(Cc3ccccc3)nn(CC(=O)N/N=C/c3ccc(F)cc3)c(=O)c12
TGI [1]: > 100 µM
GI50 [2]: 87.1 µM
TGI [2]: > 100 µM
GI50 [3]: 78.1 µM
TGI [3]: > 100 µM
GI50 [4]: 18.3 µM
TGI [4]: > 100 µM
GI50 [5]: 9.78 µM
TGI [5]: > 100 µM
GI50 [6]: 9.56 µM
TGI [6]: 27.8 µM
GI50 [7]: > 100 µM
TGI [7]: > 100 µM
GI50 [8]: > 100 µM
TGI [8]: > 100 µM
GI50 [9]: > 100 µM
TGI [9]: > 100 µM
GI50 [10]: > 100 µM
TGI [10]: > 100 µM
GI50 [11]: 26.1 µM
TGI [11]: > 100 µM
GI50 [12]: > 100 µM
TGI [12]: > 100 µM
GI50 [13]: 24.6 µM
TGI [13]: > 100 µM
GI50 [14]: 27.9 µM
TGI [14]: > 100 µM
GI50 [15]: > 100 µM
TGI [15]: > 100 µM
GI50 [16]: 46.2 µM
TGI [16]: > 100 µM
GI50 [17]: 13.6 µM
TGI [17]: 36.9 µM
GI50 [18]: 16.1 µM
TGI [18]: 57.8 µM
GI50 [19]: > 100 µM
TGI [19]: > 100 µM
GI50 [20]: > 100 µM
TGI [20]: > 100 µM
GI50 [21]: 4.12 µM
TGI [21]: 29.3 µM
GI50 [22]: 3.95 µM
TGI [22]: > 100 µM
GI50 [23]: 4.88 µM
TGI [23]: 24.1 µM
GI50 [24]: 17 µM
TGI [24]: 41.7 µM
GI50 [25]: 66.5 µM
TGI [25]: > 100 µM
GI50 [26]: > 100 µM
TGI [26]: > 100 µM
GI50 [27]: 3.13 µM
TGI [27]: 12.4 µM
GI50 [28]: 22.5 µM
TGI [28]: 54.2 µM
GI50 [29]: > 100 µM
TGI [29]: > 100 µM
GI50 [30]: > 100 µM
TGI [30]: > 100 µM
